The text on series [1]: Absorption of nicotine from the oral cavity to the systemic circulation is dependent on the pH of the saliva, pH of the blood plasma and the pKa of nicotine, which is about 7.8. Assuming a pH of the plasma of 7.4 and of the saliva of 6.8 only about 10% of the nicotine will be in the free base form. Thus, in order to promote absorption of nicotine in a free base form, which is the form predominantly absorbed through the mucosa, the pH of the saliva must be increased. At a pH of 8.8 about 90% of the nicotine will then be in the free base form.

For series [2] the following is noted: smoking a cigarette; cited from earlier work.
For the next series, the system named is adult. As to conditions: Merck Index; cited from earlier work.

Read-outs that look alike come from different tables or passages of the source.

Turning to `CN1CCCC1c1cccnc1` (stereo not shown) [nicotine, 3-(1-methyl-2-pyrrolidinyl)-pyridine], the “nicotine in the free base form” value in series [1] (assuming pH of plasma 7.4 and of saliva 6.8) was “about 10%”; in series [1] (at a pH of 8.8), “about 90%”. Moreover, the “time for nicotine to reach the brain after inhalation” value in series [2] is recorded as “ten”. Besides, the “amount of nicotine able to kill an adult” value with adult was “Approximately forty”.

The values are drawn from patent US20120017924A1 (priority 2001, published 2012).
